This test has as its target T1, human GPR91 receptor (Homo sapiens, UniProt Q9BXA5).
T1 construct: expressed in transfected cells; host or cells: CHO-K1 NFAT cells
T1 sequence (Q9BXA5 1-334): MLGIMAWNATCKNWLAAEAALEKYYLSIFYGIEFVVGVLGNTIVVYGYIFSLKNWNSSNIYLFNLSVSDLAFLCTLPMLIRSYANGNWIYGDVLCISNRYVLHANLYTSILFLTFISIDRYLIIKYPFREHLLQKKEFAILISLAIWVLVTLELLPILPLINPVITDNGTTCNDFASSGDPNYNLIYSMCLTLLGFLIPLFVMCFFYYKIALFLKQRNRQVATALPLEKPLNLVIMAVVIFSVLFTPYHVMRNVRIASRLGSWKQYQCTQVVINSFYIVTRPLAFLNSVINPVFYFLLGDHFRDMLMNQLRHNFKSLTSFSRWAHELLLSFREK
In words: Human GPR91 calcium mobilization assay. The following applies: CHO-K1 NFAT cells over expressing human GPR91 receptor; Fluo4 AM; agonist sodium succinate; flex station; read-out: hGPR91 IC50 (μM)*. In kind it is cell-based. Here is the method: Human GPR91 Calcium Mobilization Assay
To determine IC50 in CHO NFAT cells over expressing human GPR91 receptor calcium mobilization assay in flex station mode was carried out.
Grow CHO-K1 NFAT cells over expressing human GPR91 receptors in alpha MEM media were supplemented with 10% FBS (heat inactivated), 0.5 mg/ml of G-418, 0.5 mg/ml of Zeocin and 0.6 mg/ml of Hygromycin B.
The cells were seeded at least 21 hours before the experiment at the density of 25000/well in 96 well plate (Corning cat #no. 3603). It was made sure that cells were at least 95% confluent on the day of assay. No antibiotics were used for seeding purpose.
On the day of assay the media was discarded from plates and plates were washed with 100 μl of HBSS assay buffer. The plates were loaded with Fluo4 AM at 2 μM concentration. Pluronic F-127 dye was solubilized in calcium assay buffer containing 0.1% BSA, i.e., 20 μl dye+20 μl Pluronic F127 for 10 ml. Appropriate amounts of 100× probenecid was added to the loading mixture 1× final (100 μl per 10 ml). Total volume of dye loaded was made 100 μl. The plate was then wrapped in aluminium foil to protect from light and were incubated for 90 mins at 37 degrees in cell culture incubator. At the end of incubation the plates was washed again with 100 μl of HBSS buffer without BSA and 75 μl of HBSS buffer was added (without BSA) to the plate.
Further, 8 point-Dose response curve of the compounds of the present disclosure was prepared in 100% DMSO followed by 57.14-fold dilution to 1.75× in 1.75% DMSO in assay buffer. 100 μL of 1.75×NCE was added to the wells as shown below and incubated at room temp on orbital shaker at 300 rpm for 15 min. Flexstation [excitation @ 485 nm and emission @ 525 nm] for a total time of 60 seconds. 25 μL of 8× agonist (800 μM sodium succinate) was added to each well using the flexstation after establishing the baseline for 20 sec, Measurement—Max-Min over 60 sec. Using the above protocol results obtained are tabulate din the Table 1 below: […]

Each structure is given as a SMILES string.

A word on the IC50: it is the midpoint of a concentration-inhibition curve. Turning to `O=C(O)Cc1cccc(Oc2ccc(Oc3ccc(Cl)c4cnncc34)cc2C(F)(F)F)c1` [Compound A-4, 2-[3-[4-(8-chlorophthalazin-5-yl)oxy-2-(trifluoromethyl)phenoxy]phenyl]acetic acid], the IC50 is under 5 µM.
The result for `CN1CCc2cccc(Oc3ccc(Oc4cccc(CCC(=O)O)c4)c(C(F)(F)F)c3)c2C1` [Compound A-10, 3-[3-[4-[(2-methyl-3,4-dihydro-1H-isoquinolin-8-yl)oxy]-2-(trifluoromethyl)phenoxy]phenyl]propanoic acid] reads over 10 µM; that for `O=C(O)CCc1cccc(Oc2ccc(Oc3ccc4[nH]ncc4c3)cc2C(F)(F)F)c1` [Compound A-45, 3-[3-[4-(1H-indazol-5-yloxy)-2-(trifluoromethyl)phenoxy]phenyl]propanoic acid], under 5 µM; that for `O=C(O)Cc1cccc(Oc2ccc(Oc3cccc4ccncc34)cc2C(F)(F)F)c1` [Compound A-1, 2-[3-[4-(8-isoquinolyloxy)-2-(trifluoromethyl)phenoxy]phenyl]acetic acid], under 5 µM.
To `O=C(O)Cc1cccc(Oc2ccc(Oc3ccc4cnc(C5COC5)n4c3)cc2C(F)(F)F)c1` [Compound B-5, 2-[3-[4-[3-(oxetan-3-yl)imidazo[1,5-a]pyridin-6-yl]oxy-2-(trifluoromethyl)phenoxy]phenyl]acetic acid] belongs 5 to 10 µM.
As for `Cc1ncc2cccc(Oc3ccc(Oc4cccc(CC(=O)O)c4)c(C(F)(F)F)c3)n12` [Compound B-3, 2-[3-[4-(3-methylimidazo[1,5-a]pyridin-5-yl)oxy-2-(trifluoromethyl)phenoxy]phenyl]acetic acid], the concentration for half-maximal inhibition (IC50) is under 5 µM.
To `O=C(O)Cc1cccc(Oc2ncc(Oc3cccc4ccncc34)cc2C(F)(F)F)c1` [Compound A-36, 2-[3-[[5-(8-isoquinolyloxy)-3-(trifluoromethyl)-2-pyridyl]oxy]phenyl]acetic acid] belongs under 5 µM; to `Cn1ncc2c(Oc3ccc(Oc4cccc(CC(=O)O)c4)c(C(F)(F)F)c3)cccc21` [Compound A-16, 2-[3-[4-(1-methylindazol-4-yl)oxy-2-(trifluoromethyl)phenoxy]phenyl]acetic acid], under 5 µM.
The result for `O=C(O)CCc1cccc(Oc2ccc(Oc3cccc4cnncc34)cc2C(F)(F)F)c1` [Compound A-3, 3-[3-[4-phthalazin-5-yloxy-2-(trifluoromethyl)phenoxy]phenyl]propanoic acid] reads under 5 µM; that for `O=C(O)Cc1cccc(Oc2ccc(Oc3cccc4ccnc(Cl)c34)cc2C(F)(F)F)c1` [Compound A-40, 2-[3-[4-[(1-chloro-8-isoquinolyl)oxy]-2-(trifluoromethyl)phenoxy]phenyl]acetic acid], under 5 µM.
Consider `O=C(O)CCc1cccc(Oc2ccc(Oc3cccc4cccnc34)cc2C(F)(F)F)c1` [Compound A-12, 3-[3-[4-(8-quinolyloxy)-2-(trifluoromethyl)phenoxy]phenyl]propanoic acid], for which the IC50 is over 10 µM.
The result for `Cc1nccc2cccc(Oc3ccc(Oc4cccc(CC(=O)O)c4)c(C(F)(F)F)c3)c12` [Compound A-41, 2-[3-[4-[(1-methyl-8-isoquinolyl)oxy]-2-(trifluoromethyl)phenoxy]phenyl]acetic Acid] reads under 5 µM.
On to `O=C(O)Cc1cccc(Oc2ccc(Oc3ccc4c(c3)NCCO4)cc2C(F)(F)F)c1` [Compound A-18, 2-[3-[4-(3,4-dihydro-2H-1,4-benzoxazin-6-yloxy)-2-(trifluoromethyl)phenoxy]phenyl]acetic acid], for which the IC50 is under 5 µM.
The result for `O=C(O)CCc1cccc(Oc2ccc(Oc3cccn4ccnc34)cc2C(F)(F)F)c1` [Compound A-7, 3-[3-[4-imidazo[1,2-a]pyridin-8-yloxy-2-(trifluoromethyl)phenoxy]phenyl]propanoic acid] reads over 10 µM.
`O=C(O)Cc1cccc(Oc2ccc(Oc3ccc4c(ccn4CC(=O)O)c3)cc2C(F)(F)F)c1` [Compound A-32, 2-[3-[4-[1-(carboxymethyl)indol-5-yl]oxy-2-(trifluoromethyl)phenoxy]phenyl]acetic acid]: the IC50 is over 10 µM.
To `O=C(O)Cc1cccc(Oc2ccc(Oc3cccc4ccncc34)c(C(F)(F)F)c2)c1` [Compound E-1, 2-[3-[4-(8-isoquinolyloxy)-3-(trifluoromethyl)phenoxy]phenyl]acetic acid] belongs over 10 µM.
To `O=C(O)CCc1cccc(Oc2ccc(Oc3cccc4nccn34)cc2C(F)(F)F)c1` [Compound A-37, 3-[3-[4-imidazo[1,2-a]pyridin-5-yloxy-2-(trifluoromethyl)phenoxy]phenyl]propanoic acid] belongs over 10 µM; to `O=C(O)Cc1cccc(Oc2ccc(Oc3cccc4cncn34)cc2C(F)(F)F)c1` [Compound B-1, 2-[3-[4-imidazo[1,5-a]pyridin-5-yloxy-2-(trifluoromethyl)phenoxy]phenyl]acetic acid], under 5 µM; to `O=C(O)Cc1cccc(Oc2ccc(Oc3ccc4c(cnn4C4COC4)c3)cc2C(F)(F)F)c1` [Compound A-23, 2-[3-[4-[1-(oxetan-3-yl)indazol-5-yl]oxy-2-(trifluoromethyl)phenoxy]phenyl]acetic acid], over 10 µM.
The result for `O=C(O)Cc1cccc(Oc2ccc(Oc3cnc4ncn(C5COC5)c4c3)cc2C(F)(F)F)c1` [Compound A-29, 2-[3-[4-[1-(oxetan-3-yl)imidazo[4,5-b]pyridin-6-yl]oxy-2-(trifluoromethyl)phenoxy]phenyl]acetic acid] reads over 10 µM; that for `Cc1ncc2c(Oc3ccc(Oc4cccc(CC(=O)O)c4)c(C(F)(F)F)c3)cccn12` [Compound B-4, 2-[3-[4-(3-methylimidazo[1,5-a]pyridin-8-yl)oxy-2-(trifluoromethyl)phenoxy]phenyl]acetic acid], 5 to 10 µM.
As to `O=C(O)Cc1cccc(Oc2ccc(Oc3ccc4nn(C5COC5)cc4c3)cc2C(F)(F)F)c1` [Compound A-24, 2-[3-[4-[2-(oxetan-3-yl)indazol-5-yl]oxy-2-(trifluoromethyl)phenoxy]phenyl]acetic acid], the half-maximal inhibitory concentration (IC50) was over 10 µM.
To `Cc1nc2ccc(Oc3ccc(Oc4cccc(CC(=O)O)c4)c(C(F)(F)F)c3)cc2n1C1COC1` [Compound A-27, 2-[3-[4-[2-methyl-3-(oxetan-3-yl)benzimidazol-5-yl]oxy-2-(trifluoromethyl)phenoxy]phenyl]acetic acid] belongs under 5 µM; to `Cc1nc2ccc(Oc3ccc(Oc4cccc(CC(=O)O)c4)c(C4CC4)c3)cc2n1C1COC1` [Compound A-39, 2-[3-[2-cyclopropyl-4-[2-methyl-3-(oxetan-3-yl)benzimidazol-5-yl]oxy-phenoxy]phenyl]acetic acid], under 5 µM.
To `NC(=O)CCc1cccc(Oc2ccc(Oc3cccc4ccncc34)cc2C(F)(F)F)c1` [Compound C-2, 3-[3-[4-(8-isoquinolyloxy)-2-(trifluoromethyl)phenoxy]phenyl]propanamide] belongs 5 to 10 µM; to `O=C(O)CCc1cccc(Oc2ccc(OC3CCc4ccccc43)cc2C(F)(F)F)c1` (centres unmarked) [Compound A-44, 3-[3-[4-indan-1-yloxy-2-(trifluoromethyl)phenoxy]phenyl]propanoic acid], 5 to 10 µM; to `O=C(O)Cc1cccc(Oc2ccc(Oc3cccc4ncncc34)cc2C(F)(F)F)c1` [Compound A-9, 2-[3-[4-quinazolin-5-yloxy-2-(trifluoromethyl)phenoxy]phenyl]acetic acid], under 5 µM.
To `O=C(O)CCc1ccc(Oc2ccc(Oc3cccc4ccncc34)cc2C(F)(F)F)cc1` [Compound A-34, 3-[4-[4-(8-isoquinolyloxy)-2-(trifluoromethyl)phenoxy]phenyl]propanoic acid] belongs under 5 µM; to `Cn1cc2cc(Oc3ccc(Oc4cccc(CCC(=O)O)c4)c(C(F)(F)F)c3)ccc2n1` [Compound A-35, 3-[3-[4-(2-methylindazol-5-yl)oxy-2-(trifluoromethyl)phenoxy]phenyl]propanoic acid], under 5 µM.
